# Laboratory results published in US20250161338A1, “Compounds for Anti-aging Intervention” (AGENCY FOR SCIENCE, TECHNOLOGY AND RESEARCH, priority 2022, published 2025).
# Where a name gives a salt, the structure may show the parent alone. Residues, ends and D or L forms follow the SMILES beside them.
# Key:
# [1] = system: prototrophic yeast strain (CEN.PK113-7D); test: Propidium iodide fluorescence-based CLS method in yeast (incl. high-throughput screening); assay type: cell-based, Saccharomyces cerevisiae; conditions: concentration tested 100 μM; for Yeast CLS increase: Yes/No call of the screen; for PI intensity: solvent DMSO or water, chronological age point Day 7 (72 h growth = Day 1), lower = more survival;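 for PI intensity: untreated reference is eight DMSO and water control wells per plate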
# Experimental: Yeast strain was recovered from frozen glycerol stock at 30° C. on YPD agar medium. Yeast was left to propagate in SD medium overnight at 30° C. with shaking at 220 revolutions per minute (rpm). Cells propagated overnight were diluted to a starting optical density at 600 nm (OD600) of approximately 0.2 in fresh SD medium to begin the chronological lifespan (CLS) experiments.
# (§1) CLS experiments were performed in 96-well plates with 200 μL yeast culture. Cellular inoculums were transferred into 96-well plates containing serially double-diluted concentrations (0 to 10 nM) of rapamycin. Cellular inoculum was transferred into 96-well plates containing serially double-diluted concentrations (0 to 8 mM) of 2,5-anhydro-D-mannitol, D-fructose, D-mannitol, D-maltose, and D-sorbitol in SD medium. Cells were incubated at 30° C., and the growth was measured at different time points. […] Cell survival was quantified at various age time points by three different approaches: (i) PI fluorescence-based method, (ii) outgrowth in YPD liquid medium, and (iii) spotting assay (FIG. 1).
# Yeast cells (40 μL) from different age time points were transferred into a second 96-well plate (different to the 96-well plate in which the CLS analysis as outlined above was performed). Cells were washed and incubated in 100 μL 1×phosphate buffered saline (PBS) with propidium iodide (PI) (5 μg/mL) for 15 minutes in the dark. Positive and negative control samples were included for quantitative analysis. Positive control (cells boiled at 100° C. for 15 minutes) was PI-stained and processed in the same 96-well plate. Samples without PI-stained cells served as the negative control. After incubation, cells were washed and resuspended in 100 μL PBS. The fluorescence reading of the samples (excitation and emission wavelengths at 535 nm and 617 nm, respectively) and OD600 were measured with a microplate reader (BioTek, Winooski, Vermont, United States). The fluorescence intensity of each sample was normalized with OD600. The background fluorescence signal of the unstained negative sample was subtracted from the normalized fluorescence intensity of each sample. The obtained fluorescence intensity of the positive control (boiled dead cells) was considered 0% cell survival. Cell death was validated by allowing the boiled dead cells to grow in medium. Cell survival at different age time points of samples were calculated by normalizing the fluorescence intensity with positive control sample (boiled cells).
# High-throughput screening of various chemicals was tested using the same protocol for the propidium iodide fluorescence-based method as described above. The prototrophic yeast strain (CEN.PK113-7D) was grown in the synthetic defined medium with different chemical reagents at their respective single testing concentration (Table 1) in addition to eight replicates of DMSO and water controls in 96-well plates at 30° C.
# [2] = system: prototrophic yeast strain (CEN.PK113-7D); test: Yeast outgrowth in YPD liquid medium (CLS of aged cells); assay type: cell-based, Saccharomyces cerevisiae; conditions: concentration tested 100 μM; OD600 nm after 24 h in YPD at 30° C.; age point day 14
# Experimental: as §1
# Outgrowth (OD600) of aged cells was measured by the microplate reader. Quantification of cell survival for each age point was determined as relative to Day 1 (considered 100% cell survival). This quantification was performed by using the formula,
# [formula] • where OutgrowthDay n refers to the OD600 nm absorbance reading recorded on a specific day, OutgrowthDay 1 refers to the OD600 nm absorbance reading recorded on the first day where 100% cell survival is assumed.
# The CLS of the aged cells was further determined by the yeast outgrowth in YPD liquid medium method as described above. […] At chronological age point day 14, 3-μL of culture were transferred to a second 96-well plate containing 200 μL YPD medium.
Compound,Yeast CLS increase [1],PI intensity [1],Outgrowth [2]
C[C@@H]1O[C@@H](O[C@H]2[C@H](O[C@H]3CC[C@@]4(C)[C@@H](CC[C@]5(C)[C@@H]4CC=C4[C@@H]6CC(C)(C)CC[C@]6(C(=O)O[C@@H]6O[C@H](CO[C@@H]7O[C@H](CO)[C@@H](O[C@@H]8O[C@@H](C)[C@H](O)[C@@H](O)[C@H]8O)[C@H](O)[C@H]7O)[C@@H](O)[C@H](O)[C@H]6O)CC[C@]45C)[C@]3(C)CO)OC[C@H](O)[C@@H]2O)[C@H](O)[C@H](O)[C@H]1O [Hederacoside C],No,"73,515.9",0.1
CC1(C)CC[C@]2(C(=O)O)CC[C@]3(C)C(=CC[C@@H]4[C@@]5(C)CC[C@H](O)[C@@](C)(CO)[C@@H]5CC[C@]43C)[C@@H]2C1 [Hederagenin],No,"73,281.0",0.1
CC[C@H](C)[C@@H]1NC(=O)[C@@H]2CCCN2C(=O)[C@@H]2CCCN2C(=O)[C@@H]2CCCN2C(=O)[C@H](CC(C)C)NC(=O)CNC(=O)CNC(=O)[C@H](Cc2ccccc2)NC1=O [Heterophyllin B] (cyclo(FGGLPPPI)),No,"61,587.8",0.2
O=c1cc(O)cc(/C=C/c2ccc(O)c(O)c2)o1 [Hispidin],No,"67,098.8",0.1
COc1cc(CC(=O)O)ccc1O [Homovanillic acid],No,"65,033.1",0.1
CCCCCCCCCCCCCCCC(=O)NCCO [Impulsin],No,"71,903.7",0.1
C=C1C(=O)O[C@@H]2C[C@@]3(C)CCCC(=C)[C@@H]3C[C@H]12 [Isoalantolactone],No,"94,566.8",0.1
O=C(/C=C/c1ccc(O)c(O)c1)O[C@@H]1C[C@](O)(C(=O)O)C[C@@H](OC(=O)/C=C/c2ccc(O)c(O)c2)[C@H]1O [Isochlorogenic acid A],No,"63,157.7",0.1
Nc1nccc(=O)[nH]1 [Isocytosine],No,"68,813.6",0.1
O=C(O)[C@H]1O[C@@H](Oc2c(-c3ccc(O)cc3)oc3cc(O)cc(O)c3c2=O)[C@H](O)[C@@H](O)[C@@H]1O [Kaempferol 3-O-β-D-glucuronide],No,"62,874.6",0.1
Cl.N[C@@H](CS)C(=O)O.O [L-Cysteine (hydrochloride hydrate)],No,"69,216.4",0.1
N[C@@H](CCO)C(=O)O [L-Homoserine],No,"60,922.1",0.1
Nc1ccccc1C(=O)C[C@H](N)C(=O)O [L-Kynurenine],No,"72,824.1",0.1
Cl.NCCC[C@H](N)C(=O)O [L-Ornithine (hydrochloride)],No,,0.1
C[Se]CC[C@H](N)C(=O)O [L-SelenoMethionine],Yes,"31,240.0",1.2
Br.CCN1C[C@]2(OC(=O)c3ccccc3NC(C)=O)CC[C@H](OC)[C@@]34[C@@H]2C[C@@H]([C@@H]13)[C@@]1(O)C[C@H](OC)[C@H]2C[C@@H]4[C@]1(O)[C@H]2OC [Lappaconitine (hydrobromide)],No,"76,000.0",0.1
"CCC[C@@H]1C[C@@H](C(=O)N[C@@H]([C@H]2O[C@H](SC)[C@H](O)[C@@H](O)[C@H]2O)[C@@H](C)O)N(C)C1 [Lincomycin (hydrochloride monohydrate), reference compound]",No,"67,751.3",0.1
